# Measured values published in patent US12509734B2, “Systems and methods to assess microbiomes and treatments thereof” (priority 2013, dated 2025).
# Experiments:
# bacterial vaginosis (BV) = assay: Clinical assessment of BV patients after therapy (Amsel criteria, Nugent score, recurrence); assay type: in vivo, human
# Text: Patients. Five African American participants were followed at the Vaginitis Clinic at Wayne State University and had been treated for recurrent episodes symptomatic bouts of BV. Patients were enrolled after protocol explanation and written informed consent was obtained. The study was endorsed by the Human Investigational Review Board of Wayne State University. At the time of enrollment, patients were diagnosed with florid symptomatic acute BV, characterized by the presence of at least 3 of the 4 Amsel criteria (homogeneous vaginal discharge, pH elevated above 4.5, clue cells>20%, positive whiff test) and Nugent scores of at least 8.
# At this immediate PT visit, patients were given Catch-All Sample Collection Swabs (Epicentre Biotechnologies, Madison, WI) and 15 mL conical tubes for vaginal specimen self-collection. […] Samples from a previously characterized group of recurrent BV patients, sampled before and after treatment, were also evaluated by Lb-qPCR. Reichman et al., Sexually Transmitted Diseases 36: 732-734, 2009.
# [1] = tested on: vaginal microbiota (PB-primer target groups); assay: PB-qPCR microbial profiles of vaginal swabs of recurrent BV patients (Example 2); assay type: in vivo, human; conditions: P4
# Procedure: Sample processing, DNA extraction, and qPCR. Microbial gDNA was purified from swabs in 1-2 ml saline or lysis solution by a high SDS/alkaline lysis—phenol extraction protocol as described previously in Lambert and resuspended in 200 μL TE (10 mM Tris, pH 8, 1 mM EDTA). The lysed bacterial gDNA is stable for over one month at room temperature in lysis solution buffer (data not shown) and this buffer prevents changes in titer due to possible stability issues with different strains of bacteria in saline. An aliquot of purified DNA was assayed by qPCR with 18 universal and phylogenetic branch-inclusive (PB) primers and PCR conditions as described previously in Lambert. Additional primers, targeting the Enterococcus genus and its cytolysin gene CyILL, are provided in SEQ ID NOs: 92 and 95 (Enterococcus), and 93 and 96 (cytolysin gene). Each PB-primer targets a branch of the phylogenetic tree, from whole phyla to family or genus, and is far more inclusive than species-specific primers. Relative LB composition of the vaginal microbiome was determined by dividing the Lactobacillaceae titer by the sum of all PB-primers and by using the disclosed LB-blocker approach. Briefly, the LB-blocker approach uses the difference between the quantitative cycles (Cq) of two parallel qPCR reactions with universal primers targeting the 16S rRNA gene, when one of the reactions is in the presence of LB spp.-specific blocking oligomers (LB-blockers) that have been chemically modified to prevent extension and that partially overlap the universal primer binding site, effectively rendering the LB DNA “invisible” to the universal PCR, even when LB gDNA is present at great excess compared to non-LB gDNA, as is common in healthy and PT samples. PB-primers amplicons were selectively sequenced to confirm they were correctly targeted and to identify the dominant species. These were “cleaned” enzymatically as described in Lambert, and Sanger sequenced at Functional Biosciences (Madison, WI). Sequences were uploaded to Ribosomal Database Project II using its Pipeline function; species were identified based on phylogenetic trees constructed in Molecular Evolutionary Genetics Analysis (MEGA5) software.
# Calculations. Cq values from qPCR reactions were converted to molecules per reaction by comparing sample Cq values to a standard curve from the same run of Cq values derived from dilutions of an amplicon of known target of known concentration. Molecules per reaction were converted to cells per swab, assuming an average of 5 ribosomal genes per cell and proportioned to the ratio of the volume of the sample used in the DNA prep and the amount of sample used in the qPCR reaction. Delta Cq (ΔCq) values of LB-blocked reaction pairs were calculated as Cq (blocked sample)−Cq (unblocked sample). Differences between patient groups were compared using the t test in (GraphPad software).
smiles,measurement,setting,value
CCS(=O)(=O)CCn1c([N+](=O)[O-])cnc1C [tinidazole],Clinical status after treatment,"bacterial vaginosis (BV); BV patient (Nugent 10 at acute phase), 500 mg twice a day for 10 days",full remission
same,Amine test after therapy,"bacterial vaginosis (BV); P4, 500 mg bid for 7 days",negative
same,Clinical status one week after completing therapy,"bacterial vaginosis (BV); P4, 500 mg bid for 7 days",entirely asymptomatic
same,Vaginal pH after therapy,"bacterial vaginosis (BV); P4, 500 mg bid for 7 days",4.2
same,Recurrence of BV,"bacterial vaginosis (BV); P4, followed for a month",did not recur
same,Outcome at return within three weeks by Amsel criteria,"bacterial vaginosis (BV); five recurrent BV patients, Nugent scores of 0 except Patient 5",clinical cure
same,Relative level of the 7 non-LB targets detected after treatment,[1],under 0.1%
same,Response to treatment (microbial profile),[1],responded well
